Molecular target: p97 (Homo sapiens, UniProt P55072)
Test: P97 ATPase biochemical assay (ADP Glo)
Settings: 20 nM p97, 20 μM ATP, 37° C. 15 minutes
Procedure: The ATPase assay is performed according the following protocol: Purified enzyme (20 nM p97), substrate (20 μM ATP) and a dose titration of compounds are mixed in buffer (50 mM TRIS pH 7.5, 20 mM MgCl2, 0.02% TX-100, 1 mM DTT, 0.2% (v/v) glycerol) and incubated at 37° C. for 15 minutes. The reaction is terminated and the level of product generated is measured using the ADP Glo Assay Kit (Promega, Madison Wis.). Plotting product generated versus compound concentration and using a four-parameter fit model generates an IC50 value for each compounds.
The p97 assay is an initial screening assay used to determine inhibitory activity of the fused pyrimidine compounds of the invention against the p97 complex. As discussed above, inhibition of activity of the p97 proteosome complex can enable apoptosis and cause elimination of neoplastic cells (cancer cells). The method follows that of Christianson in Nat.
Assay Buffer is a mixture of 50 mM TRIS pH 7.5, 20 mM MgCl2, 0.02% TX-100, 1 mM DTT and 0.2% (v/v) Glycerol. […] The identification kit is an ADP glo kit (Promega): stop buffer, detection reagent.
0.5 μL compound serial diluted in DMSO (Final Conc. 10%)
2 μL ATP (Final Conc.=20 uM, diluted in assay buffer)
2.5 μL p97 (Final Conc.=20 nM, diluted in assay buffer)
Incubate at 37 degC for 15 min.
Add 5 μL of stop buffer, incubate at RT for 40 min.
Add 10 μL of detection reagent, incubate at RT for 30 min.
Read luminescence on Envision plate reader.
Plot normalized luminescence data against log-transformed concentration values and fit to a sigmoidal curve to determine IC50 values (done in Collaborative Drug Discovery software).

Chain of p97 (P55072 whole entry): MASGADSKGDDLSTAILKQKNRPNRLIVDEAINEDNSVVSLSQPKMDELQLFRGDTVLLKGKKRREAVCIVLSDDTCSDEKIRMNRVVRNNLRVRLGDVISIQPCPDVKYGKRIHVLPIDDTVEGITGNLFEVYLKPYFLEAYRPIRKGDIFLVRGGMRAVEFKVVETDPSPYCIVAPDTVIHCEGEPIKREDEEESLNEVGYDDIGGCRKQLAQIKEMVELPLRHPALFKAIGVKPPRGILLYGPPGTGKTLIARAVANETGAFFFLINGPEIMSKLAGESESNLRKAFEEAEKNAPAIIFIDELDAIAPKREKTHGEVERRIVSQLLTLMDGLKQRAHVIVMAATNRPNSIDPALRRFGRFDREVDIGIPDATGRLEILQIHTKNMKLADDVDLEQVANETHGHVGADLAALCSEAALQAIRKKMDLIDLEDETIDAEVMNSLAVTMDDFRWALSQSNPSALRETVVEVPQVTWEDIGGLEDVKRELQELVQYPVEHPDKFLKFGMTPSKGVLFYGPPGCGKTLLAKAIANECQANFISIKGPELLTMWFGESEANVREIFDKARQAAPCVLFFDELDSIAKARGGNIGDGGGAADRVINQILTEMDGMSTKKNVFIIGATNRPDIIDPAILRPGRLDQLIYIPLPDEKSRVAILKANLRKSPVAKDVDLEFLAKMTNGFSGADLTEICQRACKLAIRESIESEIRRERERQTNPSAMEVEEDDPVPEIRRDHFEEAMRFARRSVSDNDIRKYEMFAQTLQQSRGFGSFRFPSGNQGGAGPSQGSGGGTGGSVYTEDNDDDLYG

Structure (SMILES) | IC50 [nM]
COc1cccc2c(NCc3ccccc3)nc(-n3c(OC)nc4ccccc43)nc12 [compound 1, N-benzyl-8-methoxy-2-(2-methoxy-1H-1,3-benzodiazol-1-yl)quinazolin-4-amine] | < 100
COc1nc2ccccc2n1-c1nc(NCc2ccccc2)c2ncsc2n1 [compound 4, N-benzyl-5-(2-methoxy-1H-1,3-benzodiazol-1-yl)-[1,3]thiazolo[5,4-d]pyrimidin-7-amine] | < 100
COc1cccc2c(NCc3ccccc3)nc(-n3c(CN)cc4ccccc43)nc12 [compound 15, 2-[2-(aminomethyl)-1H-indol-1-yl]-N-benzyl-8-methoxyquinazolin-4-amine] | < 100
COc1cccc2c(NCc3ccccc3)nc(-c3c(C)oc4ccccc34)nc12 [compound 16, N-benzyl-8-methoxy-2-(2-methyl-1-benzofuran-3-yl)quinazolin-4-amine] | < 1000
COCCOc1cccc2c(NCc3ccccc3)nc(-n3c(CN)cc4ccccc43)nc12 [compound 23] | < 300
Cc1nc2c(C(N)=O)cccc2n1-c1nc2c(c(NCc3ccccc3)n1)CNCC2 [compound 83, 1-[4-(benzylamino)-5H,6H,7H,8H-pyrido[4,3-d]pyrimidin-2-yl]-2-methyl-1H-1,3-benzodiazole-4-carboxamide] | < 1000
NCc1cc2c(C(N)=O)cccc2n1-c1nc2c(c(NCc3ccccc3)n1)COCC2 [compound 86, 2-(aminomethyl)-1-[4-(benzylamino)-5H,7H,8H-pyrano[4,3-d]pyrimidin-2-yl]-1H-indole-4-carboxamide] | < 100
N#Cc1cccc2c1nc(CN)n2-c1nc2c(c(NCc3ccccc3)n1)CCCC2 [compound 87, 2-(aminomethyl)-1-[4-(benzylamino)-5,6,7,8-tetrahydroquinazolin-2-yl]-1H-1,3-benzodiazole-4-carbonitrile] | < 1000
COCCOc1cccc2c(NCc3ccccc3)nc(-n3c(CN)nc4c(C(N)=O)cccc43)nc12 [compound 88, 2-(aminomethyl)-1-[4-(benzylamino)-8-(2-methoxyethoxy)quinazolin-2-yl]-1H-1,3-benzodiazole-4-carboxamide] | < 1000
COc1cc2c(C(N)=O)cccc2n1-c1nc2c(c(NCc3ccccc3)n1)CNCC2 [compound 92, 1-[4-(benzylamino)-5H,6H,7H,8H-pyrido[4,3-d]pyrimidin-2-yl]-2-methoxy-1H-indole-4-carboxamide] | < 1000
CN(C)Cc1cc2c(C(N)=O)cccc2n1-c1nc2c(c(NCc3ccccc3)n1)COCC2 [compound 95, 1-[4-(benzylamino)-5H,7H,8H-pyrano[4,3-d]pyrimidin-2-yl]-2-[(dimethylamino)methyl]-1H-indole-4-carboxamide] | < 1000
Cc1cc2c(C(=O)NC(C)C)cccc2n1-c1nc2c(c(NCc3ccccc3)n1)COCC2 [compound 99, 1-[4-(benzylamino)-5H,7H,8H-pyrano[4,3-d]pyrimidin-2-yl]-2-methyl-N-(propan-2-yl)-1H-indole-4-carboxamide] | < 1000
Cc1cc2c(C(=O)NCCN(C)C)cccc2n1-c1nc2c(c(NCc3ccccc3)n1)COCC2 [compound 102, 1-[4-(benzylamino)-5H,7H,8H-pyrano[4,3-d]pyrimidin-2-yl]-N-[2-(dimethylamino)ethyl]-2-methyl-1H-indole-4-carboxamide] | < 1000
COc1nc2c(C(=O)O)cccc2n1-c1nc2c(c(NCc3ccccc3)n1)CCCC2 [compound 116, 1-[4-(benzylamino)-5,6,7,8-tetrahydroquinazolin-2-yl]-2-methoxy-1H-1,3-benzodiazole-4-carboxylic acid] | < 30
Cc1cc2c(-c3nnn[nH]3)cccc2n1-c1nc2c(c(NCc3ccccc3)n1)COCC2 [compound 120, N-benzyl-2-[2-methyl-4-(1H-1,2,3,4-tetrazol-5-yl)-1H-indol-1-yl]-5H,7H,8H-pyrano[4,3-d]pyrimidin-4-amine] | < 30
NC(=O)NCc1cc2c(C(N)=O)cccc2n1-c1nc2c(c(NCc3ccccc3)n1)CCCC2 [compound 127, 1-[4-(benzylamino)-5,6,7,8-tetrahydroquinazolin-2-yl]-2-[(carbamoylamino)methyl]-1H-indole-4-carboxamide] | < 100
CC(C)c1cc2c(C(N)=O)cccc2n1-c1nc2c(c(NCc3ccccc3)n1)COCC2 [compound 129, 1-[4-(benzylamino)-5H,7H,8H-pyrano[4,3-d]pyrimidin-2-yl]-2-(propan-2-yl)-1H-indole-4-carboxamide] | < 1000
NC(=O)c1cccc2c1cc(C1CC1)n2-c1nc2c(c(NCc3ccccc3)n1)COCC2 [compound 131, 1-[4-(benzylamino)-5H,7H,8H-pyrano[4,3-d]pyrimidin-2-yl]-2-cyclopropyl-1H-indole-4-carboxamide] | < 30

Results, then the compound that gave them:

IC50 [nM] | Structure (SMILES)
< 1000 | Cc1cc2ccccc2n1-c1nc(NCc2ccccc2)c2cccc(CN)c2n1 [compound 2, 8-(aminomethyl)-N-benzyl-2-(2-methyl-1H-indol-1-yl)quinazolin-4-amine]
< 100 | COc1cccc2c(NCc3ccccc3)nc(-n3c(C)cc4ccccc43)nc12 [compound 8, N-benzyl-8-methoxy-2-(2-methyl-1H-indol-1-yl)quinazolin-4-amine]
< 300 | Cc1cc2ccccc2n1-c1nc2c(c(NCc3ccccc3)n1)CNCC2 [compound 10, N-benzyl-2-(2-methyl-1H-indol-1-yl)-5H,6H,7H,8H-pyrido[4,3-d]pyrimidin-4-amine]
< 300 | Cc1cc2ccccc2n1-c1nc2c(c(NCc3ccccc3)n1)CCNC2 [compound 11, N-benzyl-2-(2-methyl-1H-indol-1-yl)-5H,6H,7H,8H-pyrido[3,4-d]pyrimidin-4-amine]
< 300 | Cc1cc2ccccc2n1-c1nc(NCc2ccccc2)c2cccc(C(N)=O)c2n1 [compound 17, 4-(benzylamino)-2-(2-methyl-1H-indol-1-yl)quinazoline-8-carboxamide]
< 300 | Cc1cc2ccccc2n1-c1nc2c(c(NCc3ccccc3)n1)COC2 [compound 18, N-benzyl-2-(2-methyl-1H-indol-1-yl)-5H,7H-furo[3,4-d]pyrimidin-4-amine]
< 1000 | Cc1cc2ccccc2n1-c1nc(NCc2ccccc2)c2cccc(C#N)c2n1 [compound 19, 4-(benzylamino)-2-(2-methyl-1H-indol-1-yl)quinazoline-8-carbonitrile]
< 100 | CC(=O)N1CCc2c(nc(-n3c(C)cc4ccccc43)nc2NCc2ccccc2)C1 [compound 20, 1-[4-(benzylamino)-2-(2-methyl-1H-indol-1-yl)-5H,6H,7H,8H-pyrido[3,4-d]pyrimidin-7-yl]ethan-1-one]
< 1000 | CC(N)c1cc2ccccc2n1-c1nc2c(c(NCc3ccccc3)n1)CCCC2 (stereo not drawn) [compound 22, 2-[2-(1-aminoethyl)-1H-indol-1-yl]-N-benzyl-5,6,7,8-tetrahydroquinazolin-4-amine]
< 300 | Cc1cc2c(F)cccc2n1-c1nc2c(c(NCc3ccccc3)n1)CNCC2 [compound 41, N-benzyl-2-(4-fluoro-2-methyl-1H-indol-1-yl)-5H,6H,7H,8H-pyrido[4,3-d]pyrimidin-4-amine]
< 1000 | COc1cccc2c1cc(C)n2-c1nc2c(c(NCc3ccccc3)n1)CNCC2 [compound 43]
< 1000 | CCN1CCc2nc(-n3c(C)cc4ccccc43)nc(NCc3ccccc3)c2C1 [compound 63, N-benzyl-6-ethyl-2-(2-methyl-1H-indol-1-yl)-5H,6H,7H,8H-pyrido[4,3-d]pyrimidin-4-amine]
< 1000 | CCCN1CCc2nc(-n3c(C)cc4ccccc43)nc(NCc3ccccc3)c2C1 [compound 65, N-benzyl-2-(2-methyl-1H-indol-1-yl)-6-propyl-5H,6H,7H,8H-pyrido[4,3-d]pyrimidin-4-amine]
< 1000 | Oc1nc2ccccc2n1-c1nc2c(c(NCc3ccccc3)n1)CCCC2 [compound 89, 1-[4-(benzylamino)-5,6,7,8-tetrahydroquinazolin-2-yl]-1H-1,3-benzodiazol-2-ol]
< 100 | Cc1cc2c(C(=O)O)cccc2n1-c1nc2c(c(NCc3ccccc3)n1)CNCC2 [compound 117, 1-[4-(benzylamino)-5H,6H,7H,8H-pyrido[4,3-d]pyrimidin-2-yl]-2-methyl-1H-indole-4-carboxylic acid]
< 1000 | Cc1cc2c(C(=N)N)cccc2n1-c1nc2c(c(NCc3ccccc3)n1)COCC2 [compound 119]
< 30 | Cc1cc2c(-c3nnn[nH]3)cccc2n1-c1nc2c(c(NCc3ccccc3)n1)CCCC2 [compound 121, N-benzyl-2-[2-methyl-4-(1H-1,2,3,4-tetrazol-5-yl)-1H-indol-1-yl]-5,6,7,8-tetrahydroquinazolin-4-amine]
< 1000 | Cc1cc2c(C(=O)N(C)C)cccc2n1-c1nc2c(c(NCc3ccccc3)n1)CCCC2 [compound 133, 1-(4-(benzylamino)-5,6,7,8-tetrahydroquinazolin-2-yl)-N,N,2-trimethyl-1H-indole-4-carboxamide]

Reference: patent US9475824B2, “Fused pyrimidines as inhibitors of p97 complex” (Cleave Biosciences, Inc., priority 2012, dated 2016)
